Reference: patent US4788178A, “Use of gonadoliberin and gonadoliberin agonists for the treatment of climacteric complaints” (Hoechst Aktiengesellschaft, priority 1984, dated 1988)

Key:
parathyroid hormone [1] = experiment: Regulating action of small doses of buserelin on parathyroid hormone in the plasma of rats; assay type: in vivo; settings: young female rats with a high level of parathyroid hormone
Source text: Increased levels of parathyroid hormone are found in bone marrow in cases of osteoporosis (Klin. Wochenschr. 62, 129-132, 1984); parathyroid hormone has an osteolytic effect. In young female rats with a high level of parathyroid hormone, small doses of the gonadoliberin agonist buserelin reduced parathyroid hormone in the plasma, although a parathyroid hormone level which has been reduced by infusion of calcium is raised by similar doses of buserelin (see German Patent Application No. P 33 32 329.1). It is possible that this regulating action of buserelin on parathyroid hormone plays a part in the treatment of ostalgia and osteoporosis.

parathyroid hormone [2] = experiment: Action of buserelin to lower parathyroid hormone in blood serum of rats; assay type: in vivo, female Wistar rats
Method: 4 groups each containing 5 female Wistar rats were treated with placebo or three different doses (1 ng/kg, 5 ng/kg and 50 ng/kg) of buserelin. An initial blood sample was taken from all animals (initial value). Thereafter, the animals were given an injection of buserelin in physiological sodium chloride solution with the addition of 0.25% Haemaccel^R, and the placebo group was given the same amount of physiological sodium chloride solution with the addition of 0.25% Haemaccel^R. Blood samples were taken after 90 minutes and 240 minutes. The blood serum was investigated for parathyroid hormone. […] Explanation of the FIG. 1: The time course of the PTH level after i.v. administration of 1 ng/kg buserelin (curve 1), 5 ng/kg (curve 2) and 50 ng/kg (curve 3) is shown. […] All measurements are indicated with standard deviation (n=5).

parathyroid hormone [3] = settings: after infusion of calcium; similar small doses; cited from earlier work

CCNC(=O)[C@@H]1CCCN1C(=O)[C@H](CCCNC(=N)N)NC(=O)[C@H](CC(C)C)NC(=O)[C@@H](COC(C)(C)C)NC(=O)[C@H](Cc1ccc(O)cc1)NC(=O)[C@H](CO)NC(=O)[C@H](Cc1c[nH]c2ccccc12)NC(=O)[C@H](Cc1cnc[nH]1)NC(=O)[C@@H]1CCC(=O)N1 [buserelin, [D-Ser(Bu^t)^6]-gonadoliberin-(1-9)-nonapeptide ethylamide]
parathyroid hormone in the plasma (parathyroid hormone [1]): reduced | dose dependence of the parathyroid hormone lowering effect (parathyroid hormone [2]; 1, 5 and 50 ng/kg i.v., 90 minutes): best effect being observed at the low doses | level of parathyroid hormone in blood serum after 90 minutes (parathyroid hormone [2]; i.v. 1 ng/kg, 5 ng/kg and 50 ng/kg buserelin, female Wistar rats, 90 minutes, n=5): decreased | level of parathyroid hormone in blood serum after 240 minutes (parathyroid hormone [2]; i.v. 1, 5 and 50 ng/kg, 240 minutes): initial value had been regained | parathyroid hormone level previously reduced by infusion of calcium (parathyroid hormone [3]): raised
